From US7893299B2, “Interleukin-1 and tumor necrosis factor-αmodulators; syntheses of such modulators and methods of using such modulators” (Nereus Pharmaceuticals, Inc., priority 2005, dated 2011)
Read-outs that look alike come from different tables or passages of the source.

Columns and labels:
Assay type in all cases: cell-based
IκBα phosphorylation = assay: phosphorylation level of IκBα induced by LPS in RPMI 8226 cells; settings: formula (IIB-A1) 13 μM, TTL3 10 μM, 50 ng/ml LPS
Experimental: One ml/well of 2×10^6/ml RPMI 8226 cells (#CCL-155C, American Type Culture Collection) were seeded in 6-well plate in LGM-3 medium and cultured for overnight at 37° C., 5% CO2 and 95% humidified air. TTL3 and formula (IIB-A1) were added to RPMI 8226 cells at the final concentration of 10 μM and 13 μM for 1 hr, respectively. DMSO was used as a control. Cells were then stimulated with 50 ng/ml LPS diluted in LGM-3 medium from 1 mg/ml stock solution for 30 min, 1 hr, 2 hr and 4 hr. At the end of each time point, cells were harvested by centrifugation and cell pellets were washed once in ice-cold 1× DPBS. To prepare samples for SDS-PAGE, cells were lysed in RIPA buffer (50 mM Tris-HCl, pH7.4, 0.9% NaCl, 1% Triton X-100, 0.25% Na-deoxycholate, 1 mM EDTA, 2 mM Na3VO4 and 1× protease inhibitors cocktail) for 15 min on ice. Cell lysates were cleared by centrifugation at 14,000 rpm, 4° C. for 10 min. Protein concentrations of cell lysates were determined by BCA protein assay kit prior to SDS-PAGE. Equal amount of proteins from various cell lysates were resolved on 10% NuPage MES precast gels and transferred to nitrocellulose membranes according to the manufacturer's instructions. After transfer membranes were first blocked in BLOTTO (5% Non-fat dry milk in 1× DPBS buffer containing 0.1% Tween-20) at room temperature for 2 hr and then incubated with appropriate primary antibodies: anti-phospho-IκBα (1:1000) or anti-Tubulin (1:2000) for 2 hr. Antibody against tubulin was used as a control to confirm the equal loading of each sample. After the primary antibody incubation, membranes were washed briefly 2-3 times for 10 min each with BLOTTO and again incubated with sheep anti-mouse HRP conjugated secondary antibody for 1 hr. Following the secondary antibody incubation, membranes were washed extensively 4 times for 15 min each with PBST (1× DPBS plus 0.1% Tween-20). HRP activity was visualized by the enhanced chemiluminescence (ECL) detection system.

[1] = tested on: TNF-α production in HPBMC; assay: TNF-α levels in LPS-stimulated Human Peripheral Blood Mononuclear cells (ELISA); settings: 5 hr drug exposure, read-out: EC50 Inhibition of TNF-α production
Experimental: Eighty μl of 3.1×10^5/ml Human Peripheral Blood Mononuclear cells (HPBMC) were seeded in Costar 3904 96-well plate in LGM-3 medium and cultured for 12 hr at 37° C., 5% CO2 and 95% humidified air. 10 μl of 8-point half-log serial dilutions of LT-1-85, CC-3-19, CC-3-13P, formula (IIB-A1) and CC-3-22 prepared in LGM-3 medium was added to the cells and incubated for 1 hr. Subsequently, 10 μl of 500 ng/ml lipopolysaccharide (LPS) diluted in LGM-3 medium from 1 mg/ml stock solution was added to the cells and incubation proceeded for another 4 hr at 37° C., 5% CO2 and 95% humidified air. SB203580, a known p38 MAP kinase inhibitor and DMSO were used as positive and negative controls, respectively. After 4 hr stimulation with LPS, the level of TNF-α from each sample was analyzed by using the human TNF-α cytoset ELISA kit. EC50 values (the drug concentration at which 50% of the maximal observed TNF-α production is inhibited) were determined using a standard sigmoidal dose response curve fitting algorithm (Prism 2.0, GraphPad Software Inc). A duplicate set of cell plates were assayed for cell viability using the Resazurin dye after the cells were incubated with test compounds for 24 hr. The fluorescence of the reduction product of Resazurin was measured using a Fusion microplate fluorometer (Packard Bioscience) with λex=535 nm and λem=590 nm filters. EC50 values (the drug concentration at which 50% of the maximal observed growth inhibition is established) were determined using a standard sigmoidal dose response curve fitting algorithm (Prism 2.0, GraphPad Software Inc).

[2] = tested on: TNF-α production in THP-1 cells; assay: LPS-induced TNF-α production in differentiated THP-1 cells (FLISA); settings: Homo sapiens, read-out: Percent TNF-α Inhibition; for inhibition at 0.1 µg/mL: 100 ng/ml; for inhibition at 1 µg/mL: 1 ug/ml; for inhibition at 10 µg/mL: 10 ug/ml
Experimental: The ability to inhibit TNF-α production was analyzed in THP-1 cells, a human acute monocytic leukemia cell line that is widely used to assess monocyte functions. In order to induce maturation, THP-1 cells were plated at 1×10^6 cells/ml and pretreated with 5 nM PMA for two days. Differentiated THP-1 cells were pretreated with various concentrations of TTL3 or its analogs for 1 hour, followed by a 4 hour incubation with 1 μg of LPS (Sigma, St. Louse, Mo.). The p38 inhibitor (SB 203580; Sigma, St. Louis, Mo.) was used as a positive control. Supernatants were collected and stored at −80° C. until assayed for TNF-α activity. A resazurin assay was performed for each analog to evaluate the effects on cell metabolism and viability.
To detect the presence of human TNFα, fluorescent linked immunosorbent assay or FLISA was developed and optimized. 100 μl of beads (6 μm, Spherotech) coated with goat anti-mouse IgG (1 mg/ml, R and D Systems) were mixed with 4 μl of biotin-anti-hTNFα mouse IgG (0.1 mg/ml, R and D Systems) and 2 μl of FMAT Blue-streptavidin (0.1 mg/ml, Applied Biosystems). 50 μl of the mixtures was combined with 50 μl of the supernatant isolated from treated THP-1 cells and added to the black wall FLISA plates (Applied Biosystems) and incubated overnight. The plates were scanned at factory set PMT setting, and the values were plotted and analyzed by Applied Biosystems software.

Row | SMILES | level of IκBα phosphorylation induced by LPS in RPMI 8226 cells (IκBα phosphorylation) | level of IκBα phosphorylation induced by LPS in RPMI 8226 cells (IκBα phosphorylation; listed as formula (IIB-A1)) | EC50 ([1]; Homo sapiens, PBMC, 5 h) [µM] | inhibition at 0.1 µg/mL [2] [%] | inhibition at 1 µg/mL [2] [%] | inhibition at 10 µg/mL [2] [%] | EC50 [1] [µM]
1 | C=C[C@@]1(C)CCC=C2[C@H]1CC[C@@H]1[C@](C)(C(=O)NC3CCCCC3)CCC[C@@]21C [Formula (IIB-A1), N-Cyclohexylamide Derivative of TTL] | decrease | greatly reduced | 1.4 | – | – | – | –
2 | C=C[C@@]1(C)CCC=C2[C@H]1CC[C@@H]1[C@](C)(C(=O)N3CCOCC3)CCC[C@@]21C [LT-1-85] | – | – | 1.9 | 10 | 45 | 55 | 2.3
3 | C=C[C@@]1(C)CCC=C2[C@H]1CC[C@@H]1[C@](C)(C(=O)OC)CCC[C@@]21C [TTL3] | minimal | – | – | 30 | 55 | 70 | –
